{"source": "paper PMC4873967", "about": "“ISPD produces CDP-ribitol used by FKTN and FKRP to transfer ribitol phosphate onto α-dystroglycan” (Nature Communications, 2016)", "format_in_all_cases": "biochemical", "key": {"ISPD (mouse Ispd)": {"target": "T1, ISPD (mouse Ispd) (Mus musculus, UniProt Q5RJG7)", "T1 construct": "gene Crppa", "T1 sequence (Q5RJG7 1-447)": "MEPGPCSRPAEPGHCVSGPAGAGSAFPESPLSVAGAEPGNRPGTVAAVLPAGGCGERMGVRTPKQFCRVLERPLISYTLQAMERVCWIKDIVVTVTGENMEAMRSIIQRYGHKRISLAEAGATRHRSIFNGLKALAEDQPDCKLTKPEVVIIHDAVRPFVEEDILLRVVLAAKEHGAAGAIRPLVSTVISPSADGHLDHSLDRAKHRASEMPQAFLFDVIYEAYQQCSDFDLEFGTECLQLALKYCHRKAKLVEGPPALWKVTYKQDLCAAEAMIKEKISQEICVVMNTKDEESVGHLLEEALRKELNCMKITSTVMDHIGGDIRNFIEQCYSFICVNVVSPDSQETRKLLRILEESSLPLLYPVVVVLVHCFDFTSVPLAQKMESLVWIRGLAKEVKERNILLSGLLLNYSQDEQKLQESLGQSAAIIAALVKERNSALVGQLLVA", "assay": "HPLC (strong anion exchange) of CDP-ribitol formed", "conditions": "1 mM CTP"}, "FKTN (fukutin)": {"target": "T2, FKTN (fukutin) (Mus musculus, UniProt Q8R507)", "T2 construct": "full ORF from mouse brown adipose tissue cDNA, C-terminal SFB tag (S-tag, two FLAG, SBP), HEK293 lysate, streptavidin beads", "T2 sequence (Q8R507 1-461)": "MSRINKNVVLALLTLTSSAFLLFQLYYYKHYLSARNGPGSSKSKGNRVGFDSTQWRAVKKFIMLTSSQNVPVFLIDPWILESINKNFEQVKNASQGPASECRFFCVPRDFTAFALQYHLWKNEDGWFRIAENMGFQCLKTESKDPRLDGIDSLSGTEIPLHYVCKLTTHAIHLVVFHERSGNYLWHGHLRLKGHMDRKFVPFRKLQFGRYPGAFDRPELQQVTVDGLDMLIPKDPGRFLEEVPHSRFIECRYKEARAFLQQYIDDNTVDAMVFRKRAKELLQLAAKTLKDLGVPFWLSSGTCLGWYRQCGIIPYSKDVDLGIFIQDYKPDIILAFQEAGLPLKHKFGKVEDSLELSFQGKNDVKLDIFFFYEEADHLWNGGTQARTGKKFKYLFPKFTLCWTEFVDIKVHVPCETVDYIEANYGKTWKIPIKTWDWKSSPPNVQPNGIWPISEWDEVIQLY", "assay": "transfer of radiolabel to alpha-dystroglycan (scintillation counting; SDS-PAGE phosphorimaging)", "conditions": "labelled compound; acceptor rabbit alpha-dystroglycan fragments; 2 mM MnCl2, pH 6.5, 30 °C, 16 h"}, "[1]": {"target": "T3, FKRP (fukutin-related protein) (Mus musculus, UniProt Q8CG64)", "T3 construct": "full ORF from mouse thymus cDNA, C-terminal SFB tag (S-tag, two FLAG, SBP), HEK293 lysate, streptavidin beads", "T3 sequence (Q8CG64 1-494)": "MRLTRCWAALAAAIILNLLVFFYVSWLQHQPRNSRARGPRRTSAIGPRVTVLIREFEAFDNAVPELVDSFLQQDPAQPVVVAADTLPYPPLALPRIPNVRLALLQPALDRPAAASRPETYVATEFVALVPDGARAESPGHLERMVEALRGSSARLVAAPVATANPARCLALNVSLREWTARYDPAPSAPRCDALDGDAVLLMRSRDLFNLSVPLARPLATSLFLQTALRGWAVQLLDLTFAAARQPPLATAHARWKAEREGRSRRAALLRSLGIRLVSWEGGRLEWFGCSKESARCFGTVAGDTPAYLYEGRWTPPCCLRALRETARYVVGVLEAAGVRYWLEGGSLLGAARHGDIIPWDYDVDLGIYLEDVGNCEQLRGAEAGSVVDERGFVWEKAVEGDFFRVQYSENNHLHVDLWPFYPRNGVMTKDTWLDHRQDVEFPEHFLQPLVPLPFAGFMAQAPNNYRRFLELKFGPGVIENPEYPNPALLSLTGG", "assay": "transfer of radiolabel to alpha-dystroglycan (scintillation counting; SDS-PAGE phosphorimaging)", "conditions": "labelled compound; acceptor rabbit alpha-dystroglycan fragments; 2 mM MnCl2, pH 6.5, 30 °C, 16 h"}}, "data": [{"compound": "Nc1ccn([C@@H]2O[C@H](COP(=O)(O)OP(=O)(O)OP(=O)(O)O)[C@@H](O)[C@H]2O)c(=O)n1", "note": "[CTP]", "values": [{"measurement": "HPLC (strong anion exchange) of CDP-ribitol formed", "setting": "ISPD (mouse Ispd); D-ribitol-5-P as co-substrate, 2 mM MgCl2, pH 7.8, 37 °C", "result": "Activity of ISPD on CTP and D-ribitol-5-P"}]}, {"compound": "Nc1ccn([C@@H]2O[C@H](COP(=O)(O)OP(=O)(O)OC[C@@H](O)[C@@H](O)[C@@H](O)CO)[C@@H](O)[C@H]2O)c(=O)n1", "note": "[CDP-ribitol]", "values": [{"measurement": "transfer of radiolabel to alpha-dystroglycan (scintillation counting); SDS-PAGE p", "setting": "FKTN (fukutin)", "result": "both FKTN and FKRP were able to transfer ribitol phosphate from CDP-ribitol onto α-dystroglycan"}, {"measurement": "transfer of radiolabel to alpha-dystroglycan (scintillation counting); SDS-PAGE p", "setting": "[1]", "result": "both FKTN and FKRP were able to transfer ribitol phosphate from CDP-ribitol onto α-dystroglycan"}]}, {"compound": "O=P(O)(O)OC[C@@H](O)[C@@H](O)[C@@H](O)CO", "note": "[D-ribitol-5-P]", "values": [{"measurement": "HPLC (strong anion exchange) of CDP-ribitol formed", "setting": "ISPD (mouse Ispd); 2 mM MgCl2, 20 mM KCl, 2 mM DTT, pH 7.8, 37 °C", "result": "we clearly observed a CDP-ribitol pyrophosphorylase activity (Fig. 1b)"}]}]}
